{"source": "patent US20160346249A1", "about": "(priority 2012, published 2016)", "key": {"[1]": {"assay": "NADPH dependent metabolism, rat liver microsomes", "type": "in vitro ADME", "conditions": "RLM, from EB-1010 10 μM", "protocol": "(§1) Bicifadine (10 μM) was used as the positive control and the formation of the lactam metabolites of bicifadine (M-12) was monitored."}, "[2]": {"system": "FMO, human liver microsome (HLM)", "assay": "FMO dependent metabolism (pre-incubation temperature), human liver microsomes", "protocol": "The microsomal incubation mixtures (ca. 0.2 mL) were prepared in triplicate in 0.1M potassium phosphate buffer (pH 7.4) containing 0.25 mg/mL microsomal protein (RLM and HLM), 1 mM EDTA, 4 mM MgCl2, and […]. Incubation mixtures were pre-incubated aerobically in a shaking water bath at 37° C. and 45° C. respectively for ca. 5 minutes. The reaction was initiated by the addition of NADPH (final concentration of 1 mM). […] For the positive controls, benzydamine (Sigma-Aldrich, St. Louis, Mo.) (final concentration 200 μM) was used in the incubation mixture. For the negative controls, water was used in the incubation mixtures instead of microsome protein. The mixtures were kept at ca. −20° C. before analysis by LC-MS/MS.\nThe incubation of benzydamine (positive control, 200 μM) was carried out concurrently and the formation of benzydamine N-oxide was monitored by LC-MS/MS."}, "[3]": {"assay": "NADPH dependent metabolism, human liver microsomes", "type": "in vitro ADME", "protocol": "as §1"}, "[4]": {"assay": "Brain and plasma levels of amitifadine and lactam metabolite EB-10101 in rat", "type": "in vivo", "set-up": "metabolite plasma level (mean±SEM): unit not given here", "conditions": "for metabolite plasma level (mean±SEM): amitifadine 10 mg/kg po", "protocol": "The studies are conducted in accordance with the Institutional Animal Care and Use Committee guidelines. […] At 0.5, 1, 2, and 4 hour after dosage, animals are briefly anesthetized in a chamber containing 4% isoflurane and rapidly decapitated. Trunk blood is collected in heparinized tubes (9 units/ml whole blood), immediately chilled to 4° C., centrifuged, and the plasma is frozen at −80° C. until analyzed. Brains are quickly removed, bisected along the midline, and frozen at −80° C. until analyzed.\nPlasma and brain samples are allowed to thaw on ice and are homogenized in a 20 ml glass vial in two volumes of ice cold water using a handheld homogenizer (VDI 12, VWR International). Standard curves are prepared in water, control plasma, and control brain homogenate. Equal volumes (100 μl) of plasma and brain homogenate samples, distilled water and internal standard are mixed in 1.5 ml polypropylene tubes and 300 μl of acetonitrile is added to each mixture. Samples are then mixed thoroughly by placing on a shaker at 200 RPM for 40 minutes at room temperature. The samples are then centrifuged at 10,000×g for 10 minutes at 4° C. and the supernatant (200 μl) is transferred to a tube containing 2 μl of 10% formic acid. The samples are subjected to a Zorbax SBC18 Solvent Saver Plus 3.0×150 mm 3.5-μm column on a Shimadzu Prominence LC. […] The concentration of compound in the column effluent is measured using an Applied Biosystems API-3200 triple quadrupole mass spectrometer."}, "[5]": {"assay": "Rat pilot developmental toxicity study", "protocol": "Clinical observations, body weights, and food consumption were recorded periodically. On GD 20, a laparohysterectomy was performed on each surviving female. The uteri, placentas, and ovaries were examined; gravid uterine weights, the numbers of fetuses, early and late resorptions, total implantations, and corpora lutea were recorded. The fetuses were weighed, sexed, and examined for external malformations and developmental variations."}, "[6]": {"assay": "Rat developmental toxicity study with toxicokinetics", "type": "in vivo", "conditions": "for AUC(0-t) / Cmax / Tmax: female, Crl:CD(SD)IGS BR, rat, in vivo, pregnant rats; for AUC(0-t): read-out: AUC0-24", "from_the_text": "For the toxicology assessment, there were twenty-five mated females/group.\nFemales that delivered early were necropsied on the day of delivery. […] The fetuses were weighed, sexed, and examined for external, visceral, and skeletal malformations and developmental variations."}, "in vitro": {"assay": "in vitro", "type": "in vitro ADME", "conditions": "human, Caco-2, pH 7.4", "protocol": "(§2) (Kalamazoo, Mich.). […] Receiver solutions consisted of buffer only. Sequential samples of transported solute are taken at 20 minute intervals in duplicate over 2 hours and the concentration of the transported compound was determined by HPLC-UV/MS. Test sample concentration is determined by LC/MS. Permeability coefficients are calculated for each sampling interval, and averages from the intervals were determined. The apparent permeability coefficient Papp is calculated from the equation where dQ/dt is the rate of permeation of drug across the cells, C0 is the original concentration in donor compartment at time zero, and A is the area of the cell monolayer. Mass balance in the system is ascertained by comparing the sum of transported solute and remaining donor solute to the starting solution concentration. The integrity of the monolayers is verified by monitoring Lucifer yellow permeation and the known P-glycoprotein substrate […] is used as a positive control."}, "Caco-2 cells": {"system": "Caco-2 cells", "assay": "in vitro", "type": "in vitro ADME", "conditions": "human, Caco-2, 2 h, 10 μM, pH 7.4", "protocol": "as §2"}, "in vivo": {"assay": "in vivo", "conditions": "Crl:CD-1(ICR) BR, mouse, po; for AUC(0-t): AUC0-24"}, "[7]": {"conditions": "po, 3 mg/kg/day, 3 mg/kg/day, GD 6"}, "[8]": {"conditions": "po, 3 mg/kg/day, 3 mg/kg/day, GD 17"}, "[9]": {"conditions": "po, 20 mg/kg/day, 20 mg/kg/day, GD 6"}, "[10]": {"conditions": "po, 20 mg/kg/day, 20 mg/kg/day, GD 17"}}}
{"smiles": "O=C1NCC2(c3ccc(Cl)c(Cl)c3)CC12", "note": "(stereo not drawn) [EB-10101, 5-(3,4-dichloro-phenyl)-3-aza-bicyclo[3.1.0]hexan-2-one]", "values": [{"measurement": "amount formed with NADPH vs without NADPH", "setting": "[1]", "value": "~5", "unit": "fold"}, {"measurement": "FMO mediation of formation", "setting": "[2]", "value": "not FMO-mediated in humans"}, {"measurement": "amount formed with NADPH vs without NADPH", "setting": "[3]; HLM, from EB-1010 10 μM", "value": "~2", "unit": "fold"}, {"measurement": "share of lactam formed by enzymes other than CYPs or FMOs", "setting": "[3]; human liver microsomes", "value": "about 50%"}, {"measurement": "metabolite plasma level (mean±SEM)", "setting": "[4]; 0.5 h", "value": "1153±610"}, {"measurement": "metabolite plasma level (mean±SEM)", "setting": "[4]; 1 h", "value": "1620±303"}, {"measurement": "metabolite plasma level (mean±SEM)", "setting": "[4]; 2 h", "value": "3831±1127"}, {"measurement": "metabolite plasma level (mean±SEM)", "setting": "[4]; 4 h", "value": "8896±794"}, {"measurement": "Kp at 0.5 h", "setting": "[4]; male, Sprague-Dawley, rat, brain and plasma, 10 mg/kg oral, 0.5 h, read-out: brain to plasma ratio", "value": 1.1}, {"measurement": "Kp at 1 h", "setting": "[4]; male, Sprague-Dawley, rat, brain and plasma, 10 mg/kg oral, 1 h, read-out: brain to plasma ratio", "value": 1.3}, {"measurement": "Kp at 2 h", "setting": "[4]; male, Sprague-Dawley, rat, brain and plasma, 10 mg/kg oral, 2 h, read-out: brain to plasma ratio", "value": 1.4}, {"measurement": "Kp at 4 h", "setting": "[4]; male, Sprague-Dawley, rat, brain and plasma, 10 mg/kg oral, 4 h, read-out: brain to plasma ratio", "value": 1.7}]}
{"smiles": "Clc1ccc([C@]23CNC[C@H]2C3)cc1Cl", "note": "[amitifadine, (+)-1-(3,4-dichlorophenyl)-3-azabicyclo[3.1.0]hexane]", "values": [{"measurement": "mean fetal weight", "setting": "[5]; 25 mg/kg/day", "value": "statistically significant reduction in mean fetal weight"}, {"measurement": "maternal mortality", "setting": "[5]; 50 mg/kg/day, GD 8, 9 or 10", "value": "all females in the 50 mg/kg/day group were euthanized in extremis"}, {"measurement": "AUC(0-t)", "setting": "[6]; oral, 10 mg/kg/day, 10 mg/kg/day, GD 17", "value": 11200, "unit": "ng·h/mL"}, {"measurement": "Cmax", "setting": "[6]; [7]", "value": 387, "unit": "ng/mL"}, {"measurement": "AUC(0-t)", "setting": "[6]; [7]", "value": 2570, "unit": "ng·h/mL"}, {"measurement": "Cmax", "setting": "[6]; [8]", "value": 397, "unit": "ng/mL"}, {"measurement": "AUC(0-t)", "setting": "[6]; [8]", "value": 2620, "unit": "ng·h/mL"}, {"measurement": "AUC(0-t)", "setting": "[6]; po, 10 mg/kg/day, 10 mg/kg/day, GD 6", "value": 10900, "unit": "ng·h/mL"}, {"measurement": "Cmax", "setting": "[6]; po, 10 mg/kg/day, 10 mg/kg/day, GD 17", "value": 1300, "unit": "ng/mL"}, {"measurement": "Cmax", "setting": "[6]; [9]", "value": 1970, "unit": "ng/mL"}, {"measurement": "AUC(0-t)", "setting": "[6]; [9]", "value": 19500, "unit": "ng·h/mL"}, {"measurement": "Cmax", "setting": "[6]; [10]", "value": 1890, "unit": "ng/mL"}, {"measurement": "AUC(0-t)", "setting": "[6]; [10]", "value": 19700, "unit": "ng·h/mL"}, {"measurement": "Tmax", "setting": "[6]; po, 3 mg/kg/day, GD 6", "value": 2, "unit": "h"}, {"measurement": "Tmax", "setting": "[6]; po, 10 mg/kg/day, GD 6", "value": 2, "unit": "h"}, {"measurement": "Tmax", "setting": "[6]; po, 20 mg/kg/day, GD 6", "value": 2, "unit": "h"}, {"measurement": "NOEL for developmental toxicity", "setting": "[6]; oral gavage GD 6-17", "value": 10, "unit": "mg/kg/day"}, {"measurement": "recovery at 2 h, 10 μM", "setting": "in vitro", "value": 62, "unit": "%"}, {"measurement": "Mass balance, AP→BL", "setting": "Caco-2 cells", "value": 62, "unit": "%"}, {"measurement": "Mass balance, BL→AP", "setting": "Caco-2 cells", "value": "(88%)"}, {"measurement": "AUC(0-t)", "setting": "in vivo; female, 10 mg/kg/day", "value": 2490, "unit": "ng·h/mL"}, {"measurement": "Cmax", "setting": "in vivo; female, 10 mg/kg/day", "value": 323, "unit": "ng/mL"}, {"measurement": "Tmax", "setting": "in vivo; female, 10 mg/kg/day", "value": 2, "unit": "h"}, {"measurement": "AUC(0-t)", "setting": "in vivo; female, 30 mg/kg/day", "value": 9920, "unit": "ng·h/mL"}, {"measurement": "Cmax", "setting": "in vivo; female, 30 mg/kg/day", "value": 1140, "unit": "ng/mL"}, {"measurement": "Tmax", "setting": "in vivo; female, 30 mg/kg/day", "value": 2, "unit": "h"}, {"measurement": "AUC(0-t)", "setting": "in vivo; female, 100 mg/kg/day", "value": 20200, "unit": "ng·h/mL"}, {"measurement": "Tmax", "setting": "in vivo; female, 100 mg/kg/day", "value": 2, "unit": "h"}, {"measurement": "Cmax", "setting": "in vivo; female, 150 mg/kg/day", "value": 4940, "unit": "ng/mL"}, {"measurement": "Tmax", "setting": "in vivo; female, 150 mg/kg/day", "value": 2, "unit": "h"}, {"measurement": "AUC(0-t)", "setting": "in vivo; male, 10 mg/kg/day", "value": 1970, "unit": "ng·h/mL"}, {"measurement": "Cmax", "setting": "in vivo; male, 10 mg/kg/day", "value": 261, "unit": "ng/mL"}, {"measurement": "Tmax", "setting": "in vivo; male, 10 mg/kg/day", "value": 1, "unit": "h"}, {"measurement": "AUC(0-t)", "setting": "in vivo; male, 30 mg/kg/day", "value": 12800, "unit": "ng·h/mL"}, {"measurement": "Cmax", "setting": "in vivo; male, 30 mg/kg/day", "value": 1060, "unit": "ng/mL"}, {"measurement": "Tmax", "setting": "in vivo; male, 30 mg/kg/day", "value": 1, "unit": "h"}, {"measurement": "AUC(0-t)", "setting": "in vivo; male, 100 mg/kg/day", "value": 22300, "unit": "ng·h/mL"}, {"measurement": "Cmax", "setting": "in vivo; male, 100 mg/kg/day", "value": 3900, "unit": "ng/mL"}, {"measurement": "Tmax", "setting": "in vivo; male, 100 mg/kg/day", "value": 2, "unit": "h"}, {"measurement": "AUC(0-t)", "setting": "in vivo; male, 150 mg/kg/day", "value": 71100, "unit": "ng·h/mL"}, {"measurement": "Cmax", "setting": "in vivo; male, 150 mg/kg/day", "value": 5610, "unit": "ng/mL"}, {"measurement": "Tmax", "setting": "in vivo; male, 150 mg/kg/day", "value": 1, "unit": "h"}]}
